Results as given in patent publication US11267794B2, “Benzothia(di)azepine compounds and their use as bile acid modulators” (Albireo AB, priority 2019, dated 2022).
Like-named read-outs stand apart in the source and are kept apart here.

Experiments:
[1] = design: species or system mice (CD1); conditions: mouse, in vivo
Procedure: Male mice (C57BL/6 or CD1) or Wistar rats of 8-9 weeks old were used. For each test compound, two groups of 3 animals each were used. One group was administered a single intravenous dose of 1 mg/kg (vehicle 100% DMSO) through the tail vein and the other group was administered a single oral dose of 10 mg/kg through gavage needle. The group that was administered an oral dose was fasted overnight. Blood samples were collected after 0.083, 0.25, 0.5, 1, 2, 4, 6, 8 and 24 hours following intravenous administration, and after 0.25, 0.5, 1, 2, 4, 6, 8 and 24 hours following oral administration. Blood samples were taken from saphenous vein. 0.2% EDTA was used as the anticoagulant. The samples were analyzed by a discovery grade bioanalytical method developed for the estimation of test compound in plasma, using an LC-MS/MS system.

hLBAT = target: T1, hLBAT (Homo sapiens, UniProt Q14973); experiment: LBAT (h/m) assay, 3H-taurocholic acid uptake in human LBAT-overexpressing cells; assay type: cell-based; conditions: 0.3 μM 3H-taurocholic acid and 7.5 μM cold taurocholic acid, 20 minutes
T1 construct: expressed in transfected cells; kept under Geneticin selection
T1 sequence (Q14973 1-349): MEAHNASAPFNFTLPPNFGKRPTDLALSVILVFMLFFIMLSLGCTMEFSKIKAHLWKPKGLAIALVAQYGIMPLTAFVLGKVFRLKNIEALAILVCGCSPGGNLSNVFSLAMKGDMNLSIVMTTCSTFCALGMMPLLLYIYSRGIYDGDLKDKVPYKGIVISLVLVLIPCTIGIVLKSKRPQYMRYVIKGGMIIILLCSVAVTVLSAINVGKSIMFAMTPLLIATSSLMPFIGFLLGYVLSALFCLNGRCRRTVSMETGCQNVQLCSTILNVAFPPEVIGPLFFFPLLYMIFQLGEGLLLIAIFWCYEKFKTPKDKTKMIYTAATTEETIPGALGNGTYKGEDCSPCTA
Procedure: 20,000 cells (Human or Mouse LBAT-overexpressing cells) were seeded in 96-wells plate (Corning CLS3809) in 100 μL MEM-alpha medium (Gibco 12571-063) supplemented with 10% FBS (Gibco 10438026) containing Geneticin (Gibco 10131-027) (1 mg/mL) and incubated at 37° C. in 5% CO2 for 24 hours. After incubation, media was decanted from the wells and cells were washed two times with 300 μL of basal MEM-alpha medium (FBS-free). After decanting basal MEM-alpha medium each time, plates were tapped against paper towel to ensure maximum removal of residual media. For human LBAT, incubation mix was prepared by adding test inhibitor dilutions (3-fold serial dilution in DMSO (Sigma D2650), 10 points) in MEM-alpha (without FBS) containing 0.3 μM 3H-taurocholic acid (ARC ART-1368) and 7.5 μM cold taurocholic acid (Sigma T4009) (maintaining 0.2% final DMSO concentration). For mouse LBAT, incubation mix was prepared by adding test inhibitor dilutions (3-fold serial dilution in DMSO, 10 points) in MEM-alpha (without FBS) containing 0.3 μM 3H-taurocholic acid and 25 μM cold taurocholic acid maintaining 0.2% final DMSO concentration). 50 μL of incubation mix containing test inhibitors was then added to the wells (in duplicate) and the plates were incubated for 20 minutes in a CO2 incubator at 37° C. After incubation, the reaction was stopped by keeping the plates on ice water mix for 2-3 minutes and then the incubation mix was aspirated completely from the wells. The wells were washed two times with 250 μL of chilled unlabelled 1 mM taurocholic acid dissolved in HEPES (Gibco 15630080)-buffered (10 mM) HBSS (Gibco 14175079) (pH 7.4). The plates were tapped against a paper towel after every wash to ensure maximum removal of blocking buffer.
100 μL of MicroScint-20 (PerkinElmer 6013621) was added to the wells and kept overnight at room temperature before reading the plates in TopCount NXT™ Microplate Scintillation and Luminescence Counter from PerkinElmer under 3H Test protocol (set at 120 seconds reading time per well, with normal plate orientation).
(§1) All test compounds were provided in powder form at room temperature. 10 mM DMSO stocks of the test compounds were prepared, aliquoted and stored at −20° C. From the 10 mM DMSO stock of the compounds, a 3-fold serial dilution in DMSO was prepared to get a total of 10 dilutions of the test compounds. 0.5 μL of this dilution in DMSO was added to 250 μL of FBS-free basal media containing 3H-taurocholic acid and cold taurocholic acid to prepare the incubation mixture.

Caco-2 cells [2] = system: Caco-2 cells
Procedure: (§2) Caco-2 cells (Evotec) were seeded at a density of 70,000 cells/well in Millicell® 24-well cell culture insert plates and maintained in an incubator (37° C., 5% CO2, 95% RH) for 21 days with media change on alternate days.
(§3) Stock solutions (10 mM) of the test compounds, atenolol (low permeability marker), propranolol (high permeability marker) and digoxin (substrate for P-gp transport pathway) were prepared in dimethylsulfoxide (DMSO). An intermediate stock solution (1 mM) was prepared by diluting 10 μL of 10 mM master stock solution with 90 μL of neat DMSO. A working stock solution (10 μM) was prepared by diluting 50 μL of 1 mM with 4950 μL of FaSSIF buffer. Post addition of compounds to the FaSSIF, samples were subjected to sonication for 2 hours, and centrifuged at 4000 RPM for 30 minutes at 37° C. The 4 mL of resultant supernatant was directly used in the assay. The final DMSO concentration in the transport experiments was 1%.
(§4) On the day of assay, Caco-2 monolayers were washed twice with transport buffer (HBSS, pH 7.4) and pre-incubated for 30 min (37° C., 5% CO2, 95% RH) in an incubator. The electrical resistance of the monolayers was measured with a Millicell®—ERS system. Monolayers with trans-epithelial electrical resistance (TEER) values greater than 350 ohm·cm^2 were selected for the assay.
(§5) The assay was conducted in absorptive direction (A2B) and secretory (B2A) directions. Transport experiments were initiated by addition of transport assay buffer (FaSSIF buffer prepared in HBSS) consisting of compounds to the donor compartment (apical chamber A-B; basolateral chamber B-A) in duplicate (n=2) wells. Drug free HBSS buffer (pH 7.4) containing 1% bovine serum albumin (BSA) was introduced to the receiver (A-B-basolateral; B-A-Apical) compartments. The volumes of apical and basolateral compartments were 0.4 and 0.8 mL, respectively. After adding dosing solution, plates were incubated in an incubator for 120 minutes at 37° C. After 120 minutes, donor and receiver samples were collected and matrix matched (1:1, 30 μL study sample+30 μL blank buffer) with the opposite buffer. Dosing samples matrix matched (1:1, 30 μL study sample+30 μL blank buffer) with the opposite buffer. Samples were processed by adding acetonitrile containing internal standard (60 μL study sample+200 μL acetonitrile containing internal standard—Tolbutamide, 500 ng/mL). Samples were vortexed and centrifuged at 4000 rpm for 10 minutes. The obtained supernatant (100 μL) was diluted with 100 μL of water and transferred to fresh 96 well plates. The concentration of compounds in the samples was analyzed by liquid chromatography tandem mass spectrometry (LC-MS/MS) method using discovery grade bio-analytical method, as applicable.
(§6) The mean apparent permeability (Papp, ×10^−6 cm/sec) of the test compounds, atenolol, propranolol and digoxin were calculated as follows:

hIBAT = target: T2, hIBAT (Homo sapiens, UniProt Q12908); experiment: IBAT (h/m) assay, 3H-taurocholic acid uptake in human IBAT-overexpressing cells; assay type: cell-based; conditions: 0.25 μM 3H-taurocholic acid and 5 μM cold taurocholic acid, 20 minutes
T2 construct: expressed in transfected cells; kept under Puromycin selection
T2 sequence (Q12908 1-348): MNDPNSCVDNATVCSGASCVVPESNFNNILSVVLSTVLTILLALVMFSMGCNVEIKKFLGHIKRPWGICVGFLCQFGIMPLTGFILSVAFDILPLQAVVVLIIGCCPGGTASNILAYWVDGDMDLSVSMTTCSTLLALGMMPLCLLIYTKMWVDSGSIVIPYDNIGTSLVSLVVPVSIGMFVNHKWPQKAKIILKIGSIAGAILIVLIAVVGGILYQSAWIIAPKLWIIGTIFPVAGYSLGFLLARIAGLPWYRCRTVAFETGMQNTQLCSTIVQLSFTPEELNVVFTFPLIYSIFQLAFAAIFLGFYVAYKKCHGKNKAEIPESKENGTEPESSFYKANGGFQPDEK
Procedure: 10,000 cells (Human or Mouse IBAT-overexpressing cells) were seeded in 96-wells plate (Corning CLS3809) in 200 μL MEM-alpha medium (Gibco 12571-063) supplemented with 10% FBS (Gibco 10438026) containing Puromycin (Gibco A1113803) (10 μg/mL) and incubated at 37° C. in 5% CO2 for 48 hours. After incubation, media was decanted from the wells and cells were washed two times with 300 μL of basal MEM-alpha medium (FBS-free). After decanting basal MEM-alpha medium each time, plates were tapped against paper towel to ensure maximum removal of residual media. Test inhibitor dilutions (highest test concentration being 10 μM, 3-fold serial dilution, 10 points) prepared in DMSO (Sigma D2650) were added in incubation mix (maintaining 0.2% final DMSO concentration) containing 0.25 μM 3H-taurocholic acid (ARC ART-1368) and 5 μM of cold taurocholic acid (Sigma T4009). 50 μL of incubation mix containing test inhibitors was then added to the wells (in duplicate) and the plates were incubated for 20 minutes in a CO2 incubator at 37° C. After incubation, the reaction was stopped by keeping the plates on ice water mix for 2-3 minutes and then the incubation mix was aspirated completely from the wells. The wells were washed two times with 250 μL of chilled unlabelled 1 mM taurocholic acid dissolved in HEPES (Gibco 15630080)-buffered (10 mM) HBSS (Gibco 14175079) (pH 7.4). The plates were tapped against a paper towel after every wash to ensure maximum removal of blocking buffer.
100 μL of MicroScint-20 (PerkinElmer 6013621) was added to the wells and kept overnight at room temperature before reading the plates in TopCount NXT™ Microplate Scintillation and Luminescence Counter from PerkinElmer under 3H Test protocol (set at 120 seconds reading time per well).
as §1

[3] = Bidirectional permeability assay (Caco-2 cells); conditions: human, Caco-2
Procedure: as §2, §3, §4, §5, §6

Caco-2 cells [4] = experiment: Bidirectional permeability assay (Caco-2 cells); conditions: FaSSIF buffer, 120 minutes at 37° C.; for Permeability (Caco-2) Papp A2B: absorptive direction (A2B); for Permeability (Caco-2) Papp B2A: secretory direction (B2A)
Procedure: as §2, §3, §4, §5, §6

Row | Compound | Bioavailability (%) [1] | IC50 (hLBAT) | Permeability (Caco-2) Papp A2B (Caco-2 cells [2]) | Permeability (Caco-2) Papp B2A (Caco-2 cells [2]) | IC50 (hIBAT) | Papp A→B at 120 min, 10 µM [3] | Papp B→A at 120 min, 10 µM [3] | Permeability (Caco-2) Papp A2B (Caco-2 cells [4]) | Permeability (Caco-2) Papp B2A (Caco-2 cells [4])
1 | CCCCC1(CC)CN(c2ccccc2)c2cc(N(C)C)c(O/C=C/C(=O)O)cc2S(=O)(=O)N1 (stereo not shown) [Example 13, (E)-3-((3-butyl-7-(dimethylamino)-3-ethyl-1,1-dioxido-5-phenyl-2,3,4,5-tetrahydro-1,2,5-benzothiadiazepin-8-yl)oxy)acrylic acid] |  | 1860 nM |  |  | 13 nM | 22 ×10⁻⁶ cm/s | 18 ×10⁻⁶ cm/s |  | 
2 | (S)—(Z)-3-((3-butyl-7-(dimethylamino)-3-ethyl-1,1-dioxido-5-phenyl-2,3,4,5-tetrahydro-1,2,5-benzothiadiazepin-8-yl)oxy)-2-fluoroacrylic acid and (R)—(Z)-3-((3-butyl-7-(dimethylamino)-3-ethyl-1,1-dioxido-5-phenyl-2,3,4,5-tetrahydro-1,2,5-benzothiadiazepin-8-yl)oxy)-2-fluoroacrylic acid [Example 3] |  | 427 nM |  |  | 8 nM |  |  | 1.8 ×10⁻⁶ cm/s | 2.2 ×10⁻⁶ cm/s
3 | CCCC[C@@]1(CC)CN(c2ccccc2)c2cc(N(C)C)c(O/C=C/C(=O)O)cc2S(=O)(=O)N1.CCCC[C@]1(CC)CN(c2ccccc2)c2cc(N(C)C)c(O/C=C/C(=O)O)cc2S(=O)(=O)N1 (mixture of isomers) [Example 14, (S)-(E)-3-((3-butyl-7-(dimethylamino)-3-ethyl-1,1-dioxido-5-phenyl-2,3,4,5-tetrahydro-1,2,5-benzothiadiazepin-8-yl)oxy)acrylic acid and (R)-(E)-3-((3-butyl-7-(dimethylamino)-3-ethyl-1,1-dioxido-5-phenyl-2,3,4,5-tetrahydro-1,2,5-benzothiadiazepin-8-yl)oxy)acrylic acid] |  |  |  |  | 6 nM |  |  | 11 ×10⁻⁶ cm/s | 20 ×10⁻⁶ cm/s

Further compounds by falling IC50 (hLBAT), results first:

Row | Bioavailability (%) [1] | IC50 (hLBAT) | Permeability (Caco-2) Papp A2B (Caco-2 cells [2]) | Permeability (Caco-2) Papp B2A (Caco-2 cells [2]) | IC50 (hIBAT) | Papp A→B at 120 min, 10 µM [3] | Papp B→A at 120 min, 10 µM [3] | Permeability (Caco-2) Papp A2B (Caco-2 cells [4]) | Permeability (Caco-2) Papp B2A (Caco-2 cells [4]) | Compound
4 | 41 (CD1) % | 113 nM | 10 ×10⁻⁶ cm/s | 5.4 ×10⁻⁶ cm/s | 4 nM |  |  |  |  | (S)-(E)-3-((3-butyl-3-ethyl-5-(4-fluorophenyl)-7-(methylthio)-1,1-dioxido-2,3,4,5-tetrahydro-1,5-benzothiazepin-8-yl)oxy)acrylic acid and (R)-(E)-3-((3-butyl-3-ethyl-5-(4-fluorophenyl)-7-(methylthio)-1,1-dioxido-2,3,4,5 tetrahydro-1,5-benzothiazepin-8-yl)oxy)acrylic acid [Example 10]
5 |  | 49 nM |  |  | 21 nM | 0.9 ×10⁻⁶ cm/s | 0.9 ×10⁻⁶ cm/s |  |  | CCCCC1(CCCC)CN(c2ccc(F)cc2)c2cc(SC)c(O/C=C(\F)C(=O)O)cc2S(=O)(=O)C1 [Example 1, (Z)-3-((3,3-dibutyl-5-(4-fluorophenyl)-7-(methylthio)-1,1-dioxido-2,3,4,5-tetrahydro-1,5-benzothiazepin-8-yl)oxy)-2-fluoroacrylic acid]
6 |  | 14 nM |  |  | 5 nM |  |  | 5.7 ×10⁻⁶ cm/s | 4.1 ×10⁻⁶ cm/s | (S)—(Z)-3-((3-butyl-3-ethyl-5-(4-fluorophenyl)-7-(methylthio)-1,1-dioxido-2,3,4,5-tetrahydro-1,5-benzothiazepin-8-yl)oxy)-2-fluoroacrylic acid and (R)—(Z)-3-((3-butyl-3-ethyl-5-(4-fluorophenyl)-7-(methylthio)-1,1-dioxido-2,3,4,5-tetrahydro-1,5-benzothiazepin-8-yl)oxy)-2-fluoroacrylic acid [Example 7]
7 |  | 14 nM |  |  | 5 nM | 2.3 ×10⁻⁶ cm/s | 2 ×10⁻⁶ cm/s |  |  | CCCCC1(CC)CN(c2ccc(F)cc2)c2cc(SC)c(O/C=C(\F)C(=O)O)cc2S(=O)(=O)C1 (stereo not shown) [Example 5, (Z)-3-((3-butyl-3-ethyl-5-(4-fluorophenyl)-7-(methylthio)-1,1-dioxido-2,3,4,5-tetrahydro-1,5-benzothiazepin-8-yl)oxy)-2-fluoroacrylic acid]
